Consider seven molecules from US11566057B2, “Long-acting co-agonists of the glucagon and GLP-1 receptors” (Merck Sharp & Dohme Corp., priority 2017, dated 2023).

The target in one experiment is T1, human GCGR (Homo sapiens, UniProt P47871).
T1 construct: expressed in transfected cells; growth medium holds Blasticidin and Hygromycin
Nature of the experiment: cAMP activity assay at the Glucagon receptor (GCGR). Type of experiment: cell-based. The settings on record: for hGCGR/hGLP1R (hTone): ratio of GCGR EC50 to GLP1R EC50. The method, boiled down: (§1)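 Peptides serially diluted from DMSO (10 points) and added to frozen-stock cells bearing human GLP1R (10,000 cells/well) or GCGR (30,000 cells/well), 1 h at RT, dark. EC50 by four-parameter logistic fit of HitHunter cAMPXS luminescence, read following overnight RT incubation.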

The target of a further experiment is T2, human GLP1R (Homo sapiens, UniProt P43220).
T2 construct: expressed in transfected cells; growth medium holds Blasticidin and Hygromycin
Nature of the experiment: cAMP activity assay at the GLP-1 receptor (GLP1R). It is filed as cell-based. Summed up:
as §1

Where [1] appears, read: summary statement: EC50 at each of the glucagon and GLP-1 receptors, read-out: EC50 at the glucagon receptor.
Where [2] appears, read: summary statement: EC50 at each of the glucagon and GLP-1 receptors, read-out: EC50 at the GLP-1 receptor.
Setting [3] is: cells expressing human GCGR, cAMP production, buffer with or without 20% human serum (not stated which), read-out: GCGR EC50 human.

Each structure is given as a SMILES string. Where two headings read alike, the source gives them in different places. Numbered stars: 1 amine (or outer) side, 2 acyl side, 3 side chain; on linkers, the order of the positions; unused ones are H or OH. Square brackets hold non-standard residues; d marks the D form. Side chains are listed from the residue outwards. Peptide text beside a SMILES is read from it. * marks the point of attachment. Phe(4-CH2NH2) = NCc1ccc(C[C@H](N)C(=O)O)cc1; C18 diacid = O=C(O)CCCCCCCCCCCCCCCCC(=O)*; C16 diacid = O=C(O)CCCCCCCCCCCCCCC(=O)*; γGlu = O=C(O)[C@H](CCC(=O)[*:2])N[*:1]; Met(O2) = CS(=O)(=O)CC[C@H](N)C(=O)O; αMeD = C[C@](N)(CC(=O)O)C(=O)O; αMeS = C[C@](N)(CO)C(=O)O; AEEA = NCCOCCOCC(=O)O; Aib = CC(C)(N)C(=O)O

T1 sequence (P47871 26-477): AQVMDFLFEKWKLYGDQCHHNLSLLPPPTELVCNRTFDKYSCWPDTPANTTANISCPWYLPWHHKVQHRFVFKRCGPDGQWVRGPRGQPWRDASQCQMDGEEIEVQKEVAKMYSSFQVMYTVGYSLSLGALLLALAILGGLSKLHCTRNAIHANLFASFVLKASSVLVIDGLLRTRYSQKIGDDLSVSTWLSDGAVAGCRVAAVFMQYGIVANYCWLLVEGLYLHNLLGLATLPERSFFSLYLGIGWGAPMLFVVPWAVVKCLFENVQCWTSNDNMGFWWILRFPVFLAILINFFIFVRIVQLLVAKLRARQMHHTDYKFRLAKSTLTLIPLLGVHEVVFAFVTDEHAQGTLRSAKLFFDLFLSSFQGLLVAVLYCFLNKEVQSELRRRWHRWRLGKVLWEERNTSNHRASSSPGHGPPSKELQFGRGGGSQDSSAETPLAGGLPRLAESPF
T2 sequence (P43220 24-463): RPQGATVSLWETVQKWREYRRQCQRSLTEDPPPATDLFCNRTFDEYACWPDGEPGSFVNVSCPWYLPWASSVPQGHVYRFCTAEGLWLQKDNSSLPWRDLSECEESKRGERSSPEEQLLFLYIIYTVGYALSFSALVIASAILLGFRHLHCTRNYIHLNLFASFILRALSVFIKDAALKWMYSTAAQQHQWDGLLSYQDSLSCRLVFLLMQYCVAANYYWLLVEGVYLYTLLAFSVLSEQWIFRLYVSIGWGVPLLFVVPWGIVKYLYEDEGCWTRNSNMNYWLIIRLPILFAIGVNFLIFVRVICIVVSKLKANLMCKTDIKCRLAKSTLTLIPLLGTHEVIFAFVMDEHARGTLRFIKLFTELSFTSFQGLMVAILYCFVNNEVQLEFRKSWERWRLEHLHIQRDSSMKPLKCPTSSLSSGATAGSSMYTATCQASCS

One may read the EC50 as the concentration that produces a half-maximal response. With `CC(C)C[C@H](NC(=O)[C@H](Cc1ccc(O)cc1)NC(=O)[C@H](CCCCN)NC(=O)[C@H](CO)NC(=O)[C@H](Cc1ccc(CNC(=O)COCCOCCNC(=O)CC[C@H](NC(=O)CCCCCCCCCCCCCCC(=O)O)C(=O)O)cc1)NC(=O)[C@H](CC(=O)O)NC(=O)[C@H](CO)NC(=O)[C@@H](NC(=O)[C@H](Cc1ccccc1)NC(=O)[C@@H](NC(=O)CNC(=O)[C@H](CCC(N)=O)NC(=O)C(C)(C)NC(=O)[C@@H](N)Cc1c[nH]cn1)[C@@H](C)O)[C@@H](C)O)C(=O)N[C@@H](CC(=O)O)C(=O)N[C@@H](C)C(=O)N[C@@H](CCCNC(=N)N)C(=O)N[C@@H](C)C(=O)N[C@@H](C)C(=O)N[C@@H](CCC(N)=O)C(=O)N[C@@H](CC(=O)O)C(=O)N[C@@H](Cc1ccccc1)C(=O)N[C@H](C(=O)N[C@@H](CCC(N)=O)C(=O)N[C@@H](Cc1c[nH]c2ccccc12)C(=O)N[C@@H](CC(C)C)C(=O)N[C@@H](CCS(C)(=O)=O)C(=O)N[C@@H](CC(=O)O)C(=O)N[C@H](C(N)=O)[C@@H](C)O)C(C)C` [TP622] (H-H[Aib]QGTFTSD[Phe(4-CH2NH2)]([AEEA-γGlu-C16 diacid])SKYLDARAAQDFVQWL[Met(O2)]DT-NH2; N-terminus assumed), the “hGCGR/hGLP1R (hTone)” value at human GCGR came to 0.4. Moreover, the EC50 on human GCGR (setting [1]) and on human GLP1R (setting [2]) was below 5 nM throughout.

Regarding `CC(C)C[C@H](NC(=O)[C@H](Cc1ccc(O)cc1)NC(=O)[C@H](CCCCN)NC(=O)[C@H](CO)NC(=O)[C@H](Cc1ccc(O)cc1)NC(=O)[C@H](CC(=O)O)NC(=O)[C@H](CO)NC(=O)[C@@H](NC(=O)[C@H](Cc1ccccc1)NC(=O)[C@@H](NC(=O)CNC(=O)[C@H](CCC(N)=O)NC(=O)[C@](C)(CO)NC(=O)[C@@H](N)Cc1c[nH]cn1)[C@@H](C)O)[C@@H](C)O)C(=O)N[C@@H](CC(=O)O)C(=O)NC(C)(C)C(=O)N[C@@H](CCCNC(=N)N)C(=O)N[C@@H](C)C(=O)N[C@@H](C)C(=O)N[C@@H](CCC(N)=O)C(=O)N[C@@H](CCCCNC(=O)COCCOCCNC(=O)COCCOCCNC(=O)CC[C@H](NC(=O)CCCCCCCCCCCCCCCCC(=O)O)C(=O)O)C(=O)N[C@@H](Cc1ccccc1)C(=O)N[C@H](C(=O)N[C@@H](CCC(N)=O)C(=O)N[C@@H](Cc1c[nH]c2ccccc12)C(=O)N[C@@H](CC(C)C)C(=O)N[C@@H](CCS(C)(=O)=O)C(=O)N[C@@](C)(CC(=O)O)C(=O)N[C@H](C(N)=O)[C@@H](C)O)C(C)C` [TP621] (H-H[αMeS]QGTFTSDYSKYLD[Aib]RAAQK([AEEA-AEEA-γGlu-C18 diacid])FVQWL[Met(O2)][αMeD]T-NH2), the 50% effective concentration (EC50) at human GCGR (setting [3]) is 0.25 nM; on human GCGR (setting [1]) it was below 5 nM; at human GLP1R (setting [2]), below 5 nM. Besides, on human GCGR, the “hGCGR/hGLP1R (hTone)” value is 0.1.

For the molecule `CC(C)C[C@H](NC(=O)[C@H](Cc1ccc(O)cc1)NC(=O)[C@H](CCCCN)NC(=O)[C@H](CO)NC(=O)[C@H](Cc1ccc(O)cc1)NC(=O)[C@H](CC(=O)O)NC(=O)[C@H](CO)NC(=O)[C@@H](NC(=O)[C@H](Cc1ccccc1)NC(=O)[C@@H](NC(=O)CNC(=O)[C@H](CCC(N)=O)NC(=O)C(C)(C)NC(=O)[C@@H](N)Cc1c[nH]cn1)[C@@H](C)O)[C@@H](C)O)C(=O)N[C@@H](CC(=O)O)C(=O)N[C@@H](C)C(=O)N[C@@H](CCCNC(=N)N)C(=O)N[C@@H](C)C(=O)N[C@@H](C)C(=O)N[C@@H](CCC(N)=O)C(=O)N[C@@H](CCCCNC(=O)COCCOCCNC(=O)COCCOCCNC(=O)CC[C@H](NC(=O)CCCCCCCCCCCCCCC(=O)O)C(=O)O)C(=O)N[C@@H](Cc1ccccc1)C(=O)N[C@H](C(=O)N[C@@H](CCC(N)=O)C(=O)N[C@@H](Cc1c[nH]c2ccccc12)C(=O)N[C@@H](CC(C)C)C(=O)N[C@@H](CCS(C)(=O)=O)C(=O)N[C@@H](CCC(=O)O)C(=O)N[C@H](C(N)=O)[C@@H](C)O)C(C)C` [TP825] (H-H[Aib]QGTFTSDYSKYLDARAAQK([AEEA-AEEA-γGlu-C16 diacid])FVQWL[Met(O2)]ET-NH2; N-terminus assumed), on human GCGR, the “hGCGR/hGLP1R (hTone)” value is listed as 2.0. The EC50 at human GCGR (setting [1]) and on human GLP1R (setting [2]) was below 5 nM throughout.

`CC(C)C[C@H](NC(=O)[C@H](Cc1c[nH]c2ccccc12)NC(=O)[C@H](CCCCNC(=O)COCCOCCNC(=O)COCCOCCNC(=O)CC[C@H](NC(=O)CCCCCCCCCCCCCCC(=O)O)C(=O)O)NC(=O)[C@@H](NC(=O)[C@H](Cc1ccccc1)NC(=O)[C@H](CC(=O)O)NC(=O)[C@H](CCC(N)=O)NC(=O)[C@H](C)NC(=O)[C@H](C)NC(=O)[C@H](CCCNC(=N)N)NC(=O)C(C)(C)NC(=O)[C@H](CC(=O)O)NC(=O)[C@H](CC(C)C)NC(=O)[C@H](Cc1ccc(O)cc1)NC(=O)[C@H](CCCCN)NC(=O)[C@H](CO)NC(=O)[C@H](Cc1ccc(O)cc1)NC(=O)[C@H](CC(=O)O)NC(=O)[C@H](CO)NC(=O)[C@@H](NC(=O)[C@H](Cc1ccccc1)NC(=O)[C@@H](NC(=O)CNC(=O)[C@H](CCC(N)=O)NC(=O)C(C)(C)NC(=O)[C@@H](N)Cc1c[nH]cn1)[C@@H](C)O)[C@@H](C)O)C(C)C)C(=O)N[C@@H](CCS(C)(=O)=O)C(=O)N[C@@H](CCC(=O)O)C(=O)N[C@H](C(N)=O)[C@@H](C)O` [TP815] (H-H[Aib]QGTFTSDYSKYLD[Aib]RAAQDFVK([AEEA-AEEA-γGlu-C16 diacid])WL[Met(O2)]ET-NH2): on human GCGR, the “hGCGR/hGLP1R (hTone)” value is listed as 0.7. The EC50 on human GCGR (setting [1]) and on human GLP1R (setting [2]) was below 5 nM throughout.

Consider `CC(C)C[C@H](NC(=O)[C@H](Cc1ccc(O)cc1)NC(=O)[C@H](CCCCN)NC(=O)[C@H](CO)NC(=O)[C@H](Cc1ccc(O)cc1)NC(=O)[C@H](CC(=O)O)NC(=O)[C@H](CO)NC(=O)[C@@H](NC(=O)[C@H](Cc1ccccc1)NC(=O)[C@@H](NC(=O)CNC(=O)[C@H](CCC(N)=O)NC(=O)C(C)(C)NC(=O)[C@@H](N)Cc1c[nH]cn1)[C@@H](C)O)[C@@H](C)O)C(=O)N[C@@H](CC(=O)O)C(=O)N[C@@H](CCC(=O)O)C(=O)N[C@@H](CCCNC(=N)N)C(=O)N[C@@H](C)C(=O)N[C@@H](C)C(=O)N[C@@H](Cc1ccc(CNC(=O)COCCOCCNC(=O)COCCOCCNC(=O)CC[C@H](NC(=O)CCCCCCCCCCCCCCCCC(=O)O)C(=O)O)cc1)C(=O)N[C@@H](CC(=O)O)C(=O)N[C@@H](Cc1ccccc1)C(=O)N[C@H](C(=O)N[C@@H](CCC(N)=O)C(=O)N[C@@H](Cc1c[nH]c2ccccc12)C(=O)N[C@@H](CC(C)C)C(=O)N[C@@H](CC(C)C)C(=O)N[C@@H](CCCCN)C(=O)N[C@H](C(N)=O)[C@@H](C)O)C(C)C` [TP587] (H-H[Aib]QGTFTSDYSKYLDERAA[Phe(4-CH2NH2)]([AEEA-AEEA-γGlu-C18 diacid])DFVQWLLKT-NH2; N-terminus assumed), for which the “hGCGR/hGLP1R (hTone)” value at human GCGR is above 4.1. The EC50 at human GCGR (setting [1]) is below 5 nM; at human GLP1R (cells expressing human GLP1R, cAMP production, buffer with or without 20% human serum (not stated which), read-out: GLP1R EC50 human), 0.41 nM; at human GLP1R (setting [2]) it was below 5 nM.

`CC(C)C[C@H](NC(=O)[C@H](C)NC(=O)[C@H](CC(=O)O)NC(=O)[C@H](CC(C)C)NC(=O)[C@H](Cc1ccc(O)cc1)NC(=O)[C@H](CCCCN)NC(=O)[C@H](CO)NC(=O)[C@H](Cc1ccc(O)cc1)NC(=O)[C@H](CC(=O)O)NC(=O)[C@H](CO)NC(=O)[C@@H](NC(=O)[C@H](Cc1ccccc1)NC(=O)[C@@H](NC(=O)CNC(=O)[C@H](CCC(N)=O)NC(=O)C(C)(C)NC(=O)[C@@H](N)Cc1c[nH]cn1)[C@@H](C)O)[C@@H](C)O)C(=O)N[C@@H](C)C(=O)N[C@@H](C)C(=O)N[C@@H](CCCCNC(=O)COCCOCCNC(=O)COCCOCCNC(=O)CC[C@H](NC(=O)CCCCCCCCCCCCCCCCC(=O)O)C(=O)O)C(=O)N[C@@H](CC(=O)O)C(=O)N[C@@H](Cc1ccccc1)C(=O)N[C@H](C(=O)N[C@@H](CCC(N)=O)C(=O)N[C@@H](Cc1c[nH]c2ccccc12)C(=O)N[C@@H](CC(C)C)C(=O)N[C@@H](CCS(C)(=O)=O)C(=O)N[C@@H](CC(=O)O)C(=O)N[C@H](C(N)=O)[C@@H](C)O)C(C)C` [TP599] (H-H[Aib]QGTFTSDYSKYLDALAAK([AEEA-AEEA-γGlu-C18 diacid])DFVQWL[Met(O2)]DT-NH2; N-terminus assumed): the “hGCGR/hGLP1R (hTone)” value on human GCGR was 1.6. Also, the EC50 at human GCGR (setting [1]) and at human GLP1R (setting [2]) was below 5 nM each time.

For the molecule `CC(C)C[C@H](NC(=O)[C@H](Cc1ccc(O)cc1)NC(=O)[C@H](CCCCN)NC(=O)[C@H](CO)NC(=O)[C@H](Cc1ccc(O)cc1)NC(=O)[C@H](CC(=O)O)NC(=O)[C@H](CO)NC(=O)[C@@H](NC(=O)[C@H](Cc1ccccc1)NC(=O)[C@@H](NC(=O)CNC(=O)[C@H](CCC(N)=O)NC(=O)C(C)(C)NC(=O)[C@@H](N)Cc1c[nH]cn1)[C@@H](C)O)[C@@H](C)O)C(=O)N[C@@H](CC(=O)O)C(=O)N[C@@H](C)C(=O)N[C@@H](CCCNC(=N)N)C(=O)N[C@@H](C)C(=O)N[C@@H](C)C(=O)N[C@@H](CCCCNC(=O)COCCOCCNC(=O)COCCOCCNC(=O)CC[C@H](NC(=O)CCCCCCCCCCCCCCC(=O)O)C(=O)O)C(=O)N[C@@H](CCC(=O)O)C(=O)N[C@@H](Cc1ccccc1)C(=O)N[C@H](C(=O)N[C@@H](CCC(N)=O)C(=O)N[C@@H](Cc1c[nH]c2ccccc12)C(=O)N[C@@H](CC(C)C)C(=O)N[C@@H](CCS(C)(=O)=O)C(=O)N[C@@H](CC(=O)O)C(=O)N[C@H](C(N)=O)[C@@H](C)O)C(C)C` [TP812] (H-H[Aib]QGTFTSDYSKYLDARAAK([AEEA-AEEA-γGlu-C16 diacid])EFVQWL[Met(O2)]DT-NH2), the EC50 on human GCGR (setting [3]) was 0.2 nM; on human GCGR (setting [1]), below 5 nM; on human GLP1R (setting [2]), below 5 nM. The “hGCGR/hGLP1R (hTone)” value on human GCGR is on record as 2.3.
